# Source: patent US20060069132A1, “Azolecarboxamide herbicides” (priority 2004, published 2006)
# Legend:
# Surinam grass = test: Test E pre-/postemergence herbicide test; type: in vivo, Urochloa decumbens
# Text: (§1) Seeds of plant species selected from bipinnate beggarticks (Bidens bipinnata L.), hairy beggarticks (Bidens radiata Thuill.), bermudagrass (Cynodon dactylon (L.) Pers.), Surinam grass (Urochloa decumbens (Staph) R. D. Webster, previously named Brachiaria decumbens Stapf), large crabgrass (Digitaria sanguinalis (L.) Scop.), green foxtail (Setaria viridis (L.) P. Beauv.), goosegrass (Eleusine indica (L.) Gaertn.), johnsongrass (Sorghum halepense (L.) Pers.), kochia (Kochia scoparia (L.) Schrad.), pitted morningglory (Ipomoea lacunosa L.), purple nutsedge (Cyperus rotundus L.), common ragweed (Ambrosia elatior L.), mustard (Brassica nigra (L.) W. D. J. Koch), guineagrass (Panicum maximum Jacq.), dallisgrass (Paspalum dilatatum Poir.), barnyardgrass (Echinochloa crus-galli (L). P. Beauv.), southern sandbur (Cenchrus echinatus L.), common sowthistle (Sonchus oleraceous L.), prickly sida (Sida spinosa L.), Italian ryegrass (Lolium multiflorum Lam.), common purslane (Portulaca oleracea L.), broadleaf signalgrass (Brachiaria platyphylla (Griseb.) Nash), common groundsel (Senecio vulgaris L.), common chickweed (Stellaria media (L.) Vill/Cyr.), tropical spiderwort (Commelina benghalensis L.), annual bluegrass (Poa annua L.), downy bromegrass (Bromus tectorum L.), itchgrass (Rottboellia cochinchinensis (L.) L.f.), quackgrass (Elytrigia repens (L.) Nevski), Canada horseweed (Erigeron Canadensis L.), field bindweed (Convolvulus arvensis L.), spotted spurge (Euphorbia maculata L.), common mallow (Malva sylvestris (=s silvestris) L.), and Russian thistle (Salsola kali L. ssp. Ruthenica (Iljin) Soo) were planted and treated preemergence with test chemicals formulated in a non-phytotoxic solvent mixture which included a surfactant.
# (§2) At the same time, plants selected from these weed species were treated with postemergence applications of some of the test chemicals formulated in the same manner. Plants ranged in height from 2 to 18 cm (1- to 4-leaf stage) for postemergence treatments. Treated plants and controls were maintained in a greenhouse for 12 to 14 days, after which time all species were compared to controls and visually evaluated. Plant response ratings, summarized in Table E, are based on a scale of 0 to 100 where 0 is no effect and 100 is complete control. A dash (-) response means no test result.
# barnyardgrass = test: Test E pre-/postemergence herbicide test; type: in vivo, Echinochloa crus-galli
# Text: as §1, §2
# common groundsel = test: Test E pre-/postemergence herbicide test; type: in vivo, Senecio vulgaris
# Text: as §1, §2
# mustard = test: Test E pre-/postemergence herbicide test; type: in vivo, Brassica nigra
# Text: as §1, §2
# downy bromegrass = test: Test E pre-/postemergence herbicide test; type: in vivo, Bromus tectorum
# Text: as §1, §2
# common purslane = test: Test E pre-/postemergence herbicide test; type: in vivo, Portulaca oleracea
# Text: as §1, §2
# southern sandbur = test: Test E pre-/postemergence herbicide test; type: in vivo, Cenchrus echinatus
# Text: as §1, §2
# common ragweed = test: Test E pre-/postemergence herbicide test; type: in vivo, Ambrosia elatior
# Text: as §1, §2
# annual bluegrass = test: Test E pre-/postemergence herbicide test; type: in vivo, Poa annua
# Text: as §1, §2
# canarygrass = test: Test C postemergence herbicide test; type: in vivo, Phalaris minor
# Summary of the method: (§3)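 Ratings (0 = no effect, 100 = complete control) come from visual comparison with untreated plants after 12 to 14 days in the greenhouse. Treatment was postemergence at the 1- to 4-leaf stage (2–18 cm), or at the 2-leaf stage for the flooded paddy barnyardgrass.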
# wild oat = test: Test C postemergence herbicide test; type: in vivo, Avenafatua
# Summary of the method: as §3
# prickly sida = test: Test E pre-/postemergence herbicide test; type: in vivo, Sida spinosa; conditions: Preemergence
# Text: as §1, §2
# Italian ryegrass = test: Test C postemergence herbicide test; type: in vivo, Lolium multiflorum
# Summary of the method: as §3
# [1] = Postemergence, 500 g ai/ha, scale 0 to 100
# [2] = Postemergence, 250 g ai/ha, scale 0 to 100
# [3] = Preemergence, 62 g ai/ha, scale 0 to 100
# [4] = Preemergence, 125 g ai/ha, scale 0 to 100
# [5] = Preemergence, 500 g ai/ha, scale 0 (no effect) to 100 (complete control)
# [6] = postemergence, 125 g ai/ha, scale 0 to 100
# [7] = postemergence, 62 g ai/ha, scale 0 to 100
# [8] = Preemergence, 250 g ai/ha, scale 0 (no effect) to 100 (complete control)
# [9] = Postemergence, 250 g ai/ha, scale 0 to 100, 0 no effect, 100 complete control
compound,measurement,setting,value
"CCn1nc(C(C)(C)C)cc1C(=O)Nc1cc(C(=O)N(C)C)ccn1 [Compound 156, 2-[[[3-(1,1-dimethylethyl)-1-ethyl-1H-pyrazol-5-yl]carbonyl]amino]-N,N-dimethyl-4-pyridinecarboxamide]","Plant response rating, Surinam Grass",Surinam grass; [1],100
same,"Plant response rating, Surinam Grass",Surinam grass; [2],98
same,"Plant response rating, Surinam Grass",Surinam grass; [3],50
same,"Plant response rating, Surinam Grass",Surinam grass; [4],75
same,"Plant response rating, Surinam Grass",Surinam grass; [5],95
same,"Plant response rating, Surinam Grass",Surinam grass; [6],95
same,"Plant response rating, Surinam Grass",Surinam grass; [7],80
same,"Plant response rating, Barnyardgrass",barnyardgrass; [1],98
same,"Plant response rating, Barnyardgrass",barnyardgrass; [2],98
same,"Plant response rating, Barnyardgrass",barnyardgrass; [3],100
same,"Plant response rating, Barnyardgrass",barnyardgrass; [4],100
same,"Plant response rating, Barnyardgrass",barnyardgrass; [8],100
same,"Plant response rating, Barnyardgrass",barnyardgrass; [5],100
same,"Plant response rating, Barnyardgrass",barnyardgrass; [6],95
same,"Plant response rating, Barnyardgrass",barnyardgrass; [7],90
same,"Plant response rating, Groundsel",common groundsel; [1],100
same,"Plant response rating, Groundsel",common groundsel; [2],100
same,"Plant response rating, Groundsel",common groundsel; [3],100
same,"Plant response rating, Groundsel",common groundsel; [4],100
same,"Plant response rating, Groundsel",common groundsel; [8],100
same,"Plant response rating, Groundsel",common groundsel; [5],100
same,"Plant response rating, Groundsel",common groundsel; [6],100
same,"Plant response rating, Groundsel",common groundsel; [7],80
same,"Plant response rating, Black Mustard",mustard; [1],100
same,"Plant response rating, Black Mustard",mustard; [2],100
same,"Plant response rating, Black Mustard",mustard; [3],100
same,"Plant response rating, Black Mustard",mustard; [4],100
same,"Plant response rating, Black Mustard",mustard; [8],100
same,"Plant response rating, Black Mustard",mustard; [5],100
same,"Plant response rating, Black Mustard",mustard; [6],100
same,"Plant response rating, Black Mustard",mustard; [7],98
same,"Plant response rating, Bromegrass, Downy",downy bromegrass; [1],100
same,"Plant response rating, Bromegrass, Downy",downy bromegrass; [2],100
same,"Plant response rating, Bromegrass, Downy",downy bromegrass; [3],60
same,"Plant response rating, Bromegrass, Downy",downy bromegrass; [4],80
same,"Plant response rating, Bromegrass, Downy",downy bromegrass; [8],100
same,"Plant response rating, Bromegrass, Downy",downy bromegrass; [5],100
same,"Plant response rating, Bromegrass, Downy",downy bromegrass; [6],100
same,"Plant response rating, Bromegrass, Downy",downy bromegrass; [7],90
same,"Plant response rating, Purslane",common purslane; [1],100
same,"Plant response rating, Purslane",common purslane; [2],100
same,"Plant response rating, Purslane",common purslane; [3],100
same,"Plant response rating, Purslane",common purslane; [4],100
same,"Plant response rating, Purslane",common purslane; [8],100
same,"Plant response rating, Purslane",common purslane; [5],100
same,"Plant response rating, Purslane",common purslane; [6],100
same,"Plant response rating, Purslane",common purslane; [7],75
same,"Plant response rating, Sandbur",southern sandbur; [1],98
same,"Plant response rating, Sandbur",southern sandbur; [2],80
same,"Plant response rating, Sandbur",southern sandbur; [3],50
same,"Plant response rating, Sandbur",southern sandbur; [4],60
same,"Plant response rating, Sandbur",southern sandbur; [8],75
same,"Plant response rating, Sandbur",southern sandbur; [5],80
same,"Plant response rating, Sandbur",southern sandbur; [6],75
same,"Plant response rating, Sandbur",southern sandbur; [7],0
same,"Plant response rating, Ragweed",common ragweed; [1],98
same,"Plant response rating, Ragweed",common ragweed; [2],90
same,"Plant response rating, Ragweed",common ragweed; [3],50
same,"Plant response rating, Ragweed",common ragweed; [4],90
same,"Plant response rating, Ragweed",common ragweed; [8],95
same,"Plant response rating, Ragweed",common ragweed; [5],100
same,"Plant response rating, Ragweed",common ragweed; [6],90
same,"Plant response rating, Ragweed",common ragweed; [7],80
same,"Plant response rating, Bluegrass",annual bluegrass; [1],98
same,"Plant response rating, Bluegrass",annual bluegrass; [2],98
same,"Plant response rating, Bluegrass",annual bluegrass; [3],95
same,"Plant response rating, Bluegrass",annual bluegrass; [4],95
same,"Plant response rating, Bluegrass",annual bluegrass; [8],100
same,"Plant response rating, Bluegrass",annual bluegrass; [5],100
same,"Plant response rating, Bluegrass",annual bluegrass; [6],95
same,"Plant response rating, Bluegrass",annual bluegrass; [7],90
"CCN1N=C(C(C)(C)C)CC1C(=O)Nc1cc(C(=O)N(C)C)ccc1F (centres unmarked) [Compound 268, N-[5-[(dimethylamino)carbonyl]-2-fluorophenyl]-3-(1,1-dimethylethyl)-1-ethyl-4,5-dihydro-1H-pyrazole-5-carboxamide]","Plant response rating, Surinam Grass",Surinam grass; [4],90
same,"Plant response rating, Surinam Grass",Surinam grass; [5],100
same,"Plant response rating, Barnyardgrass",barnyardgrass; [3],60
same,"Plant response rating, Barnyardgrass",barnyardgrass; [4],85
same,"Plant response rating, Barnyardgrass",barnyardgrass; [8],100
same,"Plant response rating, Barnyardgrass",barnyardgrass; [5],100
same,"Plant response rating, Canarygrass",canarygrass; [9],50
same,"Plant response rating, Canarygrass",canarygrass; [6],30
same,"Plant response rating, Canarygrass","canarygrass; postemergence, 31 g ai/ha, scale 0 to 100",10
same,"Plant response rating, Canarygrass",canarygrass; [7],10
same,"Plant response rating, Oat, Wild",wild oat; [9],65
same,"Plant response rating, Oat, Wild",wild oat; [6],35
same,"Plant response rating, Oat, Wild",wild oat; [7],20
same,"Plant response rating, Prickly Sida","prickly sida; 62 g ai/ha, scale 0 to 100",60
same,"Plant response rating, Prickly Sida","prickly sida; 125 g ai/ha, scale 0 to 100",80
same,"Plant response rating, Prickly Sida","prickly sida; 250 g ai/ha, scale 0 (no effect) to 100 (complete control)",100
same,"Plant response rating, Prickly Sida","prickly sida; 500 g ai/ha, scale 0 (no effect) to 100 (complete control)",100
same,"Plant response rating, Black Mustard",mustard; [3],90
same,"Plant response rating, Black Mustard",mustard; [4],100
same,"Plant response rating, Black Mustard",mustard; [8],100
same,"Plant response rating, Black Mustard",mustard; [5],100
same,"Plant response rating, Bromegrass, Downy",downy bromegrass; [4],80
same,"Plant response rating, Bromegrass, Downy",downy bromegrass; [8],80
same,"Plant response rating, Bromegrass, Downy",downy bromegrass; [5],100
same,"Plant response rating, Ryegrass, Italian",Italian ryegrass; [9],40
same,"Plant response rating, Ryegrass, Italian",Italian ryegrass; [6],30
same,"Plant response rating, Ryegrass, Italian",Italian ryegrass; [7],10
same,"Plant response rating, Sandbur",southern sandbur; [3],10
same,"Plant response rating, Sandbur",southern sandbur; [4],70
same,"Plant response rating, Sandbur",southern sandbur; [8],100
same,"Plant response rating, Sandbur",southern sandbur; [5],100
same,"Plant response rating, Ragweed",common ragweed; [3],50
same,"Plant response rating, Ragweed",common ragweed; [4],60
same,"Plant response rating, Ragweed",common ragweed; [8],100
same,"Plant response rating, Ragweed",common ragweed; [5],100
same,"Plant response rating, Bluegrass",annual bluegrass; [3],80
same,"Plant response rating, Bluegrass",annual bluegrass; [4],95
same,"Plant response rating, Bluegrass",annual bluegrass; [8],95
same,"Plant response rating, Bluegrass",annual bluegrass; [5],95
